# Assay results reported in patent US10966978B2, “Dose and regimen for HDM2-p53 interaction inhibitors” (Novartis AG, priority 2016, dated 2021).
# Where two headings read alike, the source gives them in different places.
# Test system: patients with advanced TP53 wild-type (WT) leukemias
smiles,measurement,setting,value
"COc1ncc(-c2nc3c(n2C(C)C)[C@H](c2ccc(Cl)cc2)N(c2cc(Cl)cn(C)c2=O)C3=O)c(OC)n1 [HDM201, (S)-5-(5-Chloro-1-methyl-2-oxo-1,2-dihydro-pyridin-3-yl)-6-(4-chloro-phenyl)-2-(2,4-dimethoxy-pyrimidin-5-yl)-1-isopropyl-5,6-dihydro-1H-pyrrolo[3,4-d]imidazol-4-one]",AE: Nausea,"Regimen 2C N = 8, All Grades",3 (37.5) n (%)
same,AE: Neutropenia/Neutrophil Count Decreased,"Regimen 2C N = 8, All Grades",4 (50.0) n (%)
same,AE: Oedema,"Regimen 2C N = 8, All Grades",0 n (%)
same,AE: Oedema Peripheral,"Regimen 2C N = 8, All Grades",0 n (%)
same,AE: Oral Disorder,"Regimen 2C N = 8, All Grades",0 n (%)
same,AE: Pain In Extremity,"Regimen 2C N = 8, All Grades",0 n (%)
same,AE: Pancytopenia,"Regimen 2C N = 8, All Grades",1 (12.5) n (%)
same,AE: Pneumonia,"Regimen 2C N = 8, All Grades",0 n (%)
same,AE: Pollakiuria,"Regimen 2C N = 8, All Grades",0 n (%)
same,AE: Pyrexia,"Regimen 2C N = 8, All Grades",0 n (%)
same,AE: Rash,"Regimen 2C N = 8, All Grades",0 n (%)
same,AE: Rash Erythematous,"Regimen 2C N = 8, All Grades",0 n (%)
same,AE: Rash Papular,"Regimen 2C N = 8, All Grades",0 n (%)
same,AE: Rectal Haemorrhage,"Regimen 2C N = 8, All Grades",0 n (%)
same,AE: Renal Failure,"Regimen 2C N = 8, All Grades",1 (12.5) n (%)
same,AE: Skin Exfoliation,"Regimen 2C N = 8, All Grades",0 n (%)
same,AE: Stomatitis,"Regimen 2C N = 8, All Grades",1 (12.5) n (%)
same,AE: Subarachnoid Haemorrhage,"Regimen 2C N = 8, All Grades",0 n (%)
same,AE: Thrombocytopenia/Platelet Count Decreased,"Regimen 2C N = 8, All Grades",5 (62.5) n (%)
same,AE: Total,"Regimen 2C N = 8, All Grades",8 (100) n (%)
same,AE: Tumour Lysis Syndrome,"Regimen 2C N = 8, All Grades",1 (12.5) n (%)
same,AE: Vomiting,"Regimen 2C N = 8, All Grades",1 (12.5) n (%)
same,AE: Weight Decreased,"Regimen 2C N = 8, All Grades",0 n (%)
same,AE: White Blood Cell Count Decreased,"Regimen 2C N = 8, All Grades",2 (25.0) n (%)
same,AE: Abdominal Discomfort,"Regimen 2C N = 8, Grade 3/4",0 n (%)
same,AE: Abdominal Pain,"Regimen 2C N = 8, Grade 3/4",0 n (%)
same,AE: Abdominal Pain Upper,"Regimen 2C N = 8, Grade 3/4",0 n (%)
same,AE: Amylase Increased,"Regimen 2C N = 8, Grade 3/4",0 n (%)
same,AE: Anaemia,"Regimen 2C N = 8, Grade 3/4",3 (37.5) n (%)
same,AE: Arthralgia,"Regimen 2C N = 8, Grade 3/4",0 n (%)
same,AE: Asthenia,"Regimen 2C N = 8, Grade 3/4",0 n (%)
same,AE: Atrial Fibrillation,"Regimen 2C N = 8, Grade 3/4",0 n (%)
same,AE: Atypical Pneumonia,"Regimen 2C N = 8, Grade 3/4",0 n (%)
same,AE: Balanitis Candida,"Regimen 2C N = 8, Grade 3/4",0 n (%)
same,AE: Blood Alkaline Phosphatase Increased,"Regimen 2C N = 8, Grade 3/4",0 n (%)
same,AE: Blood Bilirubin Increased,"Regimen 2C N = 8, Grade 3/4",0 n (%)
same,AE: Blood Creatinine Increased,"Regimen 2C N = 8, Grade 3/4",1 (12.5) n (%)
same,AE: Blood Phosphorus Increased,"Regimen 2C N = 8, Grade 3/4",0 n (%)
same,AE: Blood Uric Acid Increased,"Regimen 2C N = 8, Grade 3/4",0 n (%)
same,AE: Bone Marrow Failure,"Regimen 2C N = 8, Grade 3/4",0 n (%)
same,AE: C-Reactive Protein Increased,"Regimen 2C N = 8, Grade 3/4",0 n (%)
same,AE: Cardiac Failure,"Regimen 2C N = 8, Grade 3/4",0 n (%)
same,AE: Cellulitis,"Regimen 2C N = 8, Grade 3/4",0 n (%)
same,AE: Chronic Graft Versus Host Disease,"Regimen 2C N = 8, Grade 3/4",0 n (%)
same,AE: Conjunctival Haemorrhage,"Regimen 2C N = 8, Grade 3/4",0 n (%)
same,AE: Constipation,"Regimen 2C N = 8, Grade 3/4",0 n (%)
same,AE: Cough,"Regimen 2C N = 8, Grade 3/4",0 n (%)
same,AE: Cystitis Viral,"Regimen 2C N = 8, Grade 3/4",0 n (%)
same,AE: Cytomegalovirus Infection,"Regimen 2C N = 8, Grade 3/4",0 n (%)
same,AE: Decreased Appetite,"Regimen 2C N = 8, Grade 3/4",0 n (%)
same,AE: Diarrhoea,"Regimen 2C N = 8, Grade 3/4",0 n (%)
same,AE: Dyspepsia,"Regimen 2C N = 8, Grade 3/4",0 n (%)
same,AE: Dyspnoea,"Regimen 2C N = 8, Grade 3/4",0 n (%)
same,AE: Epistaxis,"Regimen 2C N = 8, Grade 3/4",0 n (%)
same,AE: Fatigue,"Regimen 2C N = 8, Grade 3/4",0 n (%)
same,AE: Febrile Neutropenia,"Regimen 2C N = 8, Grade 3/4",3 (37.5) n (%)
same,AE: Gamma-Glutamyltransferase Increased,"Regimen 2C N = 8, Grade 3/4",0 n (%)
same,AE: General Physical Health Deterioration,"Regimen 2C N = 8, Grade 3/4",0 n (%)
same,AE: Gingival Bleeding,"Regimen 2C N = 8, Grade 3/4",0 n (%)
same,AE: Graft Versus Host Disease,"Regimen 2C N = 8, Grade 3/4",0 n (%)
same,AE: Haemoglobin Decreased,"Regimen 2C N = 8, Grade 3/4",0 n (%)
same,AE: Headache,"Regimen 2C N = 8, Grade 3/4",0 n (%)
same,AE: Hyperbilirubinaemia,"Regimen 2C N = 8, Grade 3/4",0 n (%)
same,AE: Hyperglycaemia,"Regimen 2C N = 8, Grade 3/4",0 n (%)
same,AE: Hyperkalaemia,"Regimen 2C N = 8, Grade 3/4",0 n (%)
same,AE: Hyperphosphataemia,"Regimen 2C N = 8, Grade 3/4",0 n (%)
same,AE: Hypoalbuminaemia,"Regimen 2C N = 8, Grade 3/4",0 n (%)
same,AE: Hypocalcaemia,"Regimen 2C N = 8, Grade 3/4",0 n (%)
same,AE: Hypokalaemia,"Regimen 2C N = 8, Grade 3/4",0 n (%)
same,AE: Hypomagnesaemia,"Regimen 2C N = 8, Grade 3/4",0 n (%)
same,AE: Hyponatraemia,"Regimen 2C N = 8, Grade 3/4",0 n (%)
same,AE: Hypophosphataemia,"Regimen 2C N = 8, Grade 3/4",0 n (%)
same,AE: Hypotension,"Regimen 2C N = 8, Grade 3/4",0 n (%)
same,AE: Infection,"Regimen 2C N = 8, Grade 3/4",0 n (%)
same,AE: Infective Glossitis,"Regimen 2C N = 8, Grade 3/4",0 n (%)
same,AE: Iron Overload,"Regimen 2C N = 8, Grade 3/4",0 n (%)
same,AE: Leukopenia,"Regimen 2C N = 8, Grade 3/4",0 n (%)
same,AE: Lip Oedema,"Regimen 2C N = 8, Grade 3/4",0 n (%)
same,AE: Lipase Increased,"Regimen 2C N = 8, Grade 3/4",0 n (%)
same,AE: Macular Oedema,"Regimen 2C N = 8, Grade 3/4",0 n (%)
same,AE: Malaise,"Regimen 2C N = 8, Grade 3/4",0 n (%)
same,AE: Mouth Haemorrhage,"Regimen 2C N = 8, Grade 3/4",0 n (%)
same,AE: Nausea,"Regimen 2C N = 8, Grade 3/4",0 n (%)
same,AE: Neutropenia/Neutrophil Count Decreased,"Regimen 2C N = 8, Grade 3/4",3 (37.5) n (%)
same,AE: Oedema,"Regimen 2C N = 8, Grade 3/4",0 n (%)
same,AE: Oedema Peripheral,"Regimen 2C N = 8, Grade 3/4",0 n (%)
same,AE: Oral Disorder,"Regimen 2C N = 8, Grade 3/4",0 n (%)
same,AE: Pain In Extremity,"Regimen 2C N = 8, Grade 3/4",0 n (%)
same,AE: Pancytopenia,"Regimen 2C N = 8, Grade 3/4",1 (12.5) n (%)
same,AE: Pneumonia,"Regimen 2C N = 8, Grade 3/4",0 n (%)
same,AE: Pollakiuria,"Regimen 2C N = 8, Grade 3/4",0 n (%)
same,AE: Pyrexia,"Regimen 2C N = 8, Grade 3/4",0 n (%)
same,AE: Rash,"Regimen 2C N = 8, Grade 3/4",0 n (%)
same,AE: Rash Erythematous,"Regimen 2C N = 8, Grade 3/4",0 n (%)
same,AE: Rash Papular,"Regimen 2C N = 8, Grade 3/4",0 n (%)
same,AE: Rectal Haemorrhage,"Regimen 2C N = 8, Grade 3/4",0 n (%)
same,AE: Renal Failure,"Regimen 2C N = 8, Grade 3/4",1 (12.5) n (%)
same,AE: Skin Exfoliation,"Regimen 2C N = 8, Grade 3/4",0 n (%)
same,AE: Stomatitis,"Regimen 2C N = 8, Grade 3/4",0 n (%)
same,AE: Subarachnoid Haemorrhage,"Regimen 2C N = 8, Grade 3/4",0 n (%)
same,AE: Thrombocytopenia/Platelet Count Decreased,"Regimen 2C N = 8, Grade 3/4",5 (62.5) n (%)
same,AE: Total,"Regimen 2C N = 8, Grade 3/4",5 (62.5) n (%)
same,AE: Tumour Lysis Syndrome,"Regimen 2C N = 8, Grade 3/4",1 (12.5) n (%)
same,AE: Vomiting,"Regimen 2C N = 8, Grade 3/4",0 n (%)
same,AE: Weight Decreased,"Regimen 2C N = 8, Grade 3/4",0 n (%)
same,AE: White Blood Cell Count Decreased,"Regimen 2C N = 8, Grade 3/4",2 (25.0) n (%)
